One block for each compound: values may come before it.
Experiments:
[1] = tested on: transplanted paddy-field rice; assay: Test Example 4: crop injury against transplanted paddy-field rice; type: in vivo; conditions: after 25 days
Procedure: (§1) Paddy filed soil was filled in 1/5000 are Wagner pot, seeds of barnyardgrass (Echinochloa oryzicola Vasing.), Scirpus joncoides and annual broad-leaved weeds (Lindernia spp. and Rotala indica) which are awaken from dormancy were mixed at the surface layer of 1 cm. Also, tubers of Cyperus serotinus, Sagittaria pygmaea and Eleocharis kuroguwai which are awaken from dormancy were planted, and further seedlings of paddy-field rice at 2.2-leaf stage were transplanted and they were grown under the flooded condition in a greenhouse. After 3 days from the transplanting, a predetermined chemical dosage of the wettable powder prepared in accordance with Preparation example 5 was diluted with water, and applied to the pot. After 25 days, herbicidal effects and crop injury against transplanted paddy-field rice were judged according to the following judgment standard, and the results were shown in Table 5. Incidentally, “-” in the table means a composition containing no effective ingredient.
(§2) Judgment Standard • 0: Growth-inhibition rate; 0 to 15% • 1: Growth inhibition rate; 16 to 35% • 2: Growth inhibition rate; 36 to 55% • 3: Growth inhibition rate; 56 to 75% • 4: Growth inhibition rate; […] • 5: Growth inhibition rate; 96 to 100%.

[2] = tested on: annual broad-leaved weeds (Lindernia spp. and Rotala indica); assay: Test Example 4: herbicidal effects of mixed wettable powder, paddy-field pot test; type: in vivo; conditions: after 25 days
Procedure: as §1, §2

Cyperus serotinus [3] = assay: as above; type: in vivo; conditions: after 25 days
Procedure: as §1, §2

Sagittaria pygmaea = assay: as above; type: in vivo; conditions: after 25 days
Procedure: as §1, §2

[4] = tested on: barnyardgrass (Echinochloa oryzicola Vasing.); assay: as above; type: in vivo; conditions: after 25 days
Procedure: as §1, §2

Scirpus joncoides [5] = assay: as above; type: in vivo; conditions: after 25 days
Procedure: as §1, §2

Eleocharis kuroguwai = assay: as above; type: in vivo; conditions: after 25 days
Procedure: as §1, §2

[6] = tested on: transplanted paddy-field rice; assay: Test Example 1: crop injury against transplanted paddy-field rice; type: in vivo; conditions: wettable powder applied 3 days after transplanting, judged after 25 days
Procedure, shortened: (§3)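 Greenhouse, flooded paddy soil; weeds from seed (top 1 cm), C. serotinus from germinated tubers, rice transplanted at 2.2-leaf stage. WP diluted in water, applied to pot day 3 post-transplant. Scored day 25 post-treatment, 0–5 inhibition scale.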

[7] = tested on: annual broad-leaved weeds (Lindernia spp., Rotala indica); assay: Test Example 1: herbicidal effects, paddy-field pot test; type: in vivo; conditions: wettable powder applied 3 days after transplanting, judged after 25 days
Procedure, shortened: as §3

Cyperus serotinus [8] = assay: as above; type: in vivo; conditions: wettable powder applied 3 days after transplanting, judged after 25 days
Procedure, shortened: as §3

[9] = tested on: barnyardgrass (Echinochloa oryzicola Vasing.); assay: as above; type: in vivo; conditions: wettable powder applied 3 days after transplanting, judged after 25 days
Procedure, shortened: as §3

Scirpus joncoides [10] = assay: as above; type: in vivo; conditions: wettable powder applied 3 days after transplanting, judged after 25 days
Procedure, shortened: as §3

[11] = derivative 5 g/a, no second compound
[12] = derivative 10 g/a, no second compound

SMILES: Cc1ccc(S(=O)(=O)Oc2c(C(=O)c3ccc(Cl)cc3Cl)c(C)nn2C)cc1 [Compound A, 4-(2,4-dichlorobenzoyl)-1,3-dimethyl-5-pyrazolyl-p-toluenesulfonate, reference compound]
Crop injury against transplanted rice ([1]; second compound alone 5 g/a): 0 (Growth-inhibition rate; 0 to 15%) | Crop injury against transplanted rice ([1]; second compound alone 30 g/a): 0 (Growth-inhibition rate; 0 to 15%) | Herbicidal effects Broad leaf ([2]; second compound alone 5 g/a): 4 (Growth inhibition rate; 7.6 to 95%) | Herbicidal effects Broad leaf ([2]; second compound alone 30 g/a): 5 (Growth inhibition rate; 96 to 100%) | Herbicidal effects Cyperus serotinus (Cyperus serotinus [3]; second compound alone 5 g/a): 2 (Growth inhibition rate; 36 to 55%) | Herbicidal effects Cyperus serotinus (Cyperus serotinus [3]; second compound alone 30 g/a): 4 (Growth inhibition rate; 7.6 to 95%) | Herbicidal effects Sagittaria pygmaea (Sagittaria pygmaea; second compound alone 5 g/a): 4 (Growth inhibition rate; 7.6 to 95%) | Herbicidal effects Sagittaria pygmaea (Sagittaria pygmaea; second compound alone 30 g/a): 5 (Growth inhibition rate; 96 to 100%) | Herbicidal effects Barnyard grass ([4]; second compound alone 5 g/a): 3 (Growth inhibition rate; 56 to 75%) | Herbicidal effects Barnyard grass ([4]; second compound alone 30 g/a): 5 (Growth inhibition rate; 96 to 100%) | Herbicidal effects Scirpus joncoides (Scirpus joncoides [5]; second compound alone 5 g/a): 3 (Growth inhibition rate; 56 to 75%) | Herbicidal effects Scirpus joncoides (Scirpus joncoides [5]; second compound alone 30 g/a): 4 (Growth inhibition rate; 7.6 to 95%) | Herbicidal effects Eleocharis kuroguwai (Eleocharis kuroguwai; second compound alone 5 g/a): 0 (Growth-inhibition rate; 0 to 15%) | Herbicidal effects Eleocharis kuroguwai (Eleocharis kuroguwai; second compound alone 30 g/a): 2 (Growth inhibition rate; 36 to 55%)

SMILES: Cc1nn(C)c(OCC(=O)c2ccccc2)c1C(=O)c1ccc(Cl)cc1Cl [Compound B, 2-[4-(2,4-dichlorobenzoyl)-1,3-dimethylpyrazol-5-yloxy]acetophenone, reference compound]
Crop injury against transplanted rice ([1]; second compound alone 5 g/a): 0 (Growth-inhibition rate; 0 to 15%) | Crop injury against transplanted rice ([1]; second compound alone 30 g/a): 0 (Growth-inhibition rate; 0 to 15%) | Herbicidal effects Broad leaf ([2]; second compound alone 5 g/a): 4 (Growth inhibition rate; 7.6 to 95%) | Herbicidal effects Broad leaf ([2]; second compound alone 30 g/a): 5 (Growth inhibition rate; 96 to 100%) | Herbicidal effects Cyperus serotinus (Cyperus serotinus [3]; second compound alone 5 g/a): 2 (Growth inhibition rate; 36 to 55%) | Herbicidal effects Cyperus serotinus (Cyperus serotinus [3]; second compound alone 30 g/a): 4 (Growth inhibition rate; 7.6 to 95%) | Herbicidal effects Sagittaria pygmaea (Sagittaria pygmaea; second compound alone 5 g/a): 4 (Growth inhibition rate; 7.6 to 95%) | Herbicidal effects Sagittaria pygmaea (Sagittaria pygmaea; second compound alone 30 g/a): 5 (Growth inhibition rate; 96 to 100%) | Herbicidal effects Barnyard grass ([4]; second compound alone 5 g/a): 3 (Growth inhibition rate; 56 to 75%) | Herbicidal effects Barnyard grass ([4]; second compound alone 30 g/a): 5 (Growth inhibition rate; 96 to 100%) | Herbicidal effects Scirpus joncoides (Scirpus joncoides [5]; second compound alone 5 g/a): 3 (Growth inhibition rate; 56 to 75%) | Herbicidal effects Scirpus joncoides (Scirpus joncoides [5]; second compound alone 30 g/a): 4 (Growth inhibition rate; 7.6 to 95%) | Herbicidal effects Eleocharis kuroguwai (Eleocharis kuroguwai; second compound alone 5 g/a): 0 (Growth-inhibition rate; 0 to 15%) | Herbicidal effects Eleocharis kuroguwai (Eleocharis kuroguwai; second compound alone 30 g/a): 2 (Growth inhibition rate; 36 to 55%)

melting point: 203 to 207 °C
SMILES: N#CC1CC1c1ccccc1Oc1nnc(Cl)cc1O (stereo not drawn) [Compound No. 226, 2-{2-[(6-Chloro-4-hydroxy-3-pyridazinyl)oxy]phenyl}-cyclopropanecarbonitrile]
Crop injury against transplanted rice [1, 11]: 0 (Growth-inhibition rate; 0 to 15%) | Crop injury against transplanted rice [1, 12]: 0 (Growth-inhibition rate; 0 to 15%) | Herbicidal effects Broad leaf [2, 11]: 5 (Growth inhibition rate; 96 to 100%) | Herbicidal effects Broad leaf [2, 12]: 5 (Growth inhibition rate; 96 to 100%) | Herbicidal effects Cyperus serotinus (Cyperus serotinus [3]; [11]): 5 (Growth inhibition rate; 96 to 100%) | Herbicidal effects Cyperus serotinus (Cyperus serotinus [3]; [12]): 5 (Growth inhibition rate; 96 to 100%) | Herbicidal effects Sagittaria pygmaea (Sagittaria pygmaea; [11]): 5 (Growth inhibition rate; 96 to 100%) | Herbicidal effects Sagittaria pygmaea (Sagittaria pygmaea; [12]): 5 (Growth inhibition rate; 96 to 100%) | Herbicidal effects Barnyard grass [4, 11]: 3 (Growth inhibition rate; 56 to 75%) | Herbicidal effects Barnyard grass [4, 12]: 3 (Growth inhibition rate; 56 to 75%) | Herbicidal effects Scirpus joncoides (Scirpus joncoides [5]; [11]): 4 (Growth inhibition rate; 7.6 to 95%) | Herbicidal effects Scirpus joncoides (Scirpus joncoides [5]; [12]): 5 (Growth inhibition rate; 96 to 100%) | Herbicidal effects Eleocharis kuroguwai (Eleocharis kuroguwai; [11]): 1 (Growth inhibition rate; 16 to 35%) | Herbicidal effects Eleocharis kuroguwai (Eleocharis kuroguwai; [12]): 2 (Growth inhibition rate; 36 to 55%)

SMILES: Cc1ccc(C(=O)COc2c(C(=O)c3c(Cl)ccc(C)c3Cl)c(C)nn2C)cc1 [Compound C, 2-[4-(2,4-dichloro-m-toluoyl)-1,3-dimethylpyrazol-5-yloxy]-4′-methyl-acetophenone, reference compound]
Crop injury against transplanted rice ([1]; second compound alone 5 g/a): 0 (Growth-inhibition rate; 0 to 15%) | Crop injury against transplanted rice ([1]; second compound alone 30 g/a): 0 (Growth-inhibition rate; 0 to 15%) | Herbicidal effects Broad leaf ([2]; second compound alone 5 g/a): 5 (Growth inhibition rate; 96 to 100%) | Herbicidal effects Broad leaf ([2]; second compound alone 30 g/a): 5 (Growth inhibition rate; 96 to 100%) | Herbicidal effects Cyperus serotinus (Cyperus serotinus [3]; second compound alone 5 g/a): 1 (Growth inhibition rate; 16 to 35%) | Herbicidal effects Cyperus serotinus (Cyperus serotinus [3]; second compound alone 30 g/a): 4 (Growth inhibition rate; 7.6 to 95%) | Herbicidal effects Sagittaria pygmaea (Sagittaria pygmaea; second compound alone 5 g/a): 4 (Growth inhibition rate; 7.6 to 95%) | Herbicidal effects Sagittaria pygmaea (Sagittaria pygmaea; second compound alone 30 g/a): 5 (Growth inhibition rate; 96 to 100%) | Herbicidal effects Barnyard grass ([4]; second compound alone 5 g/a): 3 (Growth inhibition rate; 56 to 75%) | Herbicidal effects Barnyard grass ([4]; second compound alone 30 g/a): 5 (Growth inhibition rate; 96 to 100%) | Herbicidal effects Scirpus joncoides (Scirpus joncoides [5]; second compound alone 5 g/a): 2 (Growth inhibition rate; 36 to 55%) | Herbicidal effects Scirpus joncoides (Scirpus joncoides [5]; second compound alone 30 g/a): 4 (Growth inhibition rate; 7.6 to 95%) | Herbicidal effects Eleocharis kuroguwai (Eleocharis kuroguwai; second compound alone 5 g/a): 0 (Growth-inhibition rate; 0 to 15%) | Herbicidal effects Eleocharis kuroguwai (Eleocharis kuroguwai; second compound alone 30 g/a): 2 (Growth inhibition rate; 36 to 55%)

SMILES: O=S(=O)(Oc1cc(Cl)nnc1Oc1ccccc1C1CC1)C(F)(F)F [Example 26]
Crop injury against transplanted rice ([6]; chemical dosage 10 g/a): 0 (Growth inhibition rate; 0 to 10%) | Crop injury against transplanted rice ([6]; chemical dosage 20 g/a): 0 (Growth inhibition rate; 0 to 10%) | Herbicidal effects Broad leaf ([7]; chemical dosage 10 g/a): 5 (Growth inhibition rate; 91 to 100%) | Herbicidal effects Broad leaf ([7]; chemical dosage 20 g/a): 5 (Growth inhibition rate; 91 to 100%) | Herbicidal effects Cyperus serotinus (Cyperus serotinus [8]; chemical dosage 10 g/a): 5 (Growth inhibition rate; 91 to 100%) | Herbicidal effects Cyperus serotinus (Cyperus serotinus [8]; chemical dosage 20 g/a): 5 (Growth inhibition rate; 91 to 100%) | Herbicidal effects Barnyard grass ([9]; chemical dosage 10 g/a): 4 (Growth inhibition rate; 71 to 90%) | Herbicidal effects Barnyard grass ([9]; chemical dosage 20 g/a): 4 (Growth inhibition rate; 71 to 90%) | Herbicidal effects Scirpus joncoides (Scirpus joncoides [10]; chemical dosage 10 g/a): 5 (Growth inhibition rate; 91 to 100%) | Herbicidal effects Scirpus joncoides (Scirpus joncoides [10]; chemical dosage 20 g/a): 5 (Growth inhibition rate; 91 to 100%)

SMILES: CSc1ccccc1Oc1nnc(Cl)cc1O [Example 129]
Crop injury against transplanted rice ([6]; chemical dosage 12.5 g/a): 0 (Growth inhibition rate; 0 to 10%) | Crop injury against transplanted rice ([6]; chemical dosage 25 g/a): 0 (Growth inhibition rate; 0 to 10%) | Herbicidal effects Broad leaf ([7]; chemical dosage 12.5 g/a): 5 (Growth inhibition rate; 91 to 100%) | Herbicidal effects Broad leaf ([7]; chemical dosage 25 g/a): 5 (Growth inhibition rate; 91 to 100%) | Herbicidal effects Cyperus serotinus (Cyperus serotinus [8]; chemical dosage 12.5 g/a): 4 (Growth inhibition rate; 71 to 90%) | Herbicidal effects Cyperus serotinus (Cyperus serotinus [8]; chemical dosage 25 g/a): 5 (Growth inhibition rate; 91 to 100%) | Herbicidal effects Barnyard grass ([9]; chemical dosage 12.5 g/a): 1 (Growth inhibition rate; 11 to 30%) | Herbicidal effects Barnyard grass ([9]; chemical dosage 25 g/a): 2 (Growth inhibition rate; 31 to 50%) | Herbicidal effects Scirpus joncoides (Scirpus joncoides [10]; chemical dosage 12.5 g/a): 3 (Growth inhibition rate; 51 to 70%) | Herbicidal effects Scirpus joncoides (Scirpus joncoides [10]; chemical dosage 25 g/a): 4 (Growth inhibition rate; 71 to 90%)

SMILES: Cc1cc(C)c(Oc2nnc(Cl)cc2O)c(C2CC2)c1 [Example 318]
Crop injury against transplanted rice ([6]; chemical dosage 10 g/a): 0 (Growth inhibition rate; 0 to 10%) | Crop injury against transplanted rice ([6]; chemical dosage 20 g/a): 0 (Growth inhibition rate; 0 to 10%) | Herbicidal effects Broad leaf ([7]; chemical dosage 10 g/a): 5 (Growth inhibition rate; 91 to 100%) | Herbicidal effects Broad leaf ([7]; chemical dosage 20 g/a): 5 (Growth inhibition rate; 91 to 100%) | Herbicidal effects Cyperus serotinus (Cyperus serotinus [8]; chemical dosage 10 g/a): 5 (Growth inhibition rate; 91 to 100%) | Herbicidal effects Cyperus serotinus (Cyperus serotinus [8]; chemical dosage 20 g/a): 5 (Growth inhibition rate; 91 to 100%) | Herbicidal effects Barnyard grass ([9]; chemical dosage 10 g/a): 0 (Growth inhibition rate; 0 to 10%) | Herbicidal effects Barnyard grass ([9]; chemical dosage 20 g/a): 1 (Growth inhibition rate; 11 to 30%) | Herbicidal effects Scirpus joncoides (Scirpus joncoides [10]; chemical dosage 10 g/a): 5 (Growth inhibition rate; 91 to 100%) | Herbicidal effects Scirpus joncoides (Scirpus joncoides [10]; chemical dosage 20 g/a): 5 (Growth inhibition rate; 91 to 100%)

— patent publication US7964531B2, “3-phenoxy-4-pyridazinol derivatives and herbicidal composition containing the same” (Mitsui Chemicals Agro, Inc., priority 2001, dated 2011)
